Results reported in publication PMC6886798, “Expression of myeloid Src-family kinases is associated with poor prognosis in AML and influences Flt3-ITD kinase inhibitor acquired resistance” (PLoS ONE, 2019).

Key:
Experiment in all cases: KINOMEscan
Assay type in all cases: binding
Conditions in all cases: 1.0 µM
[1] = target: T1, AKT3 (Homo sapiens, UniProt Q9Y243)
T1 construct: purchased Eurofins/DiscoverX KINOMEscan scanMAX
Experimental: (§1) Kinase retention to the immobilized ligand is then measured using quantitative real-time PCR for each kinase-specific DNA barcode.

[2] = target: T2, EIF2AK1 (Homo sapiens, UniProt Q9BQI3)
T2 construct: purchased Eurofins/DiscoverX KINOMEscan scanMAX
Experimental: as §1

[3] = target: T3, PIP5K1A (Homo sapiens, UniProt Q99755)
T3 construct: purchased Eurofins/DiscoverX KINOMEscan scanMAX
Experimental: as §1

[4] = target: T4, PRKD3 (Homo sapiens, UniProt O94806)
T4 construct: purchased Eurofins/DiscoverX KINOMEscan scanMAX
T4 sequence (O94806 whole entry): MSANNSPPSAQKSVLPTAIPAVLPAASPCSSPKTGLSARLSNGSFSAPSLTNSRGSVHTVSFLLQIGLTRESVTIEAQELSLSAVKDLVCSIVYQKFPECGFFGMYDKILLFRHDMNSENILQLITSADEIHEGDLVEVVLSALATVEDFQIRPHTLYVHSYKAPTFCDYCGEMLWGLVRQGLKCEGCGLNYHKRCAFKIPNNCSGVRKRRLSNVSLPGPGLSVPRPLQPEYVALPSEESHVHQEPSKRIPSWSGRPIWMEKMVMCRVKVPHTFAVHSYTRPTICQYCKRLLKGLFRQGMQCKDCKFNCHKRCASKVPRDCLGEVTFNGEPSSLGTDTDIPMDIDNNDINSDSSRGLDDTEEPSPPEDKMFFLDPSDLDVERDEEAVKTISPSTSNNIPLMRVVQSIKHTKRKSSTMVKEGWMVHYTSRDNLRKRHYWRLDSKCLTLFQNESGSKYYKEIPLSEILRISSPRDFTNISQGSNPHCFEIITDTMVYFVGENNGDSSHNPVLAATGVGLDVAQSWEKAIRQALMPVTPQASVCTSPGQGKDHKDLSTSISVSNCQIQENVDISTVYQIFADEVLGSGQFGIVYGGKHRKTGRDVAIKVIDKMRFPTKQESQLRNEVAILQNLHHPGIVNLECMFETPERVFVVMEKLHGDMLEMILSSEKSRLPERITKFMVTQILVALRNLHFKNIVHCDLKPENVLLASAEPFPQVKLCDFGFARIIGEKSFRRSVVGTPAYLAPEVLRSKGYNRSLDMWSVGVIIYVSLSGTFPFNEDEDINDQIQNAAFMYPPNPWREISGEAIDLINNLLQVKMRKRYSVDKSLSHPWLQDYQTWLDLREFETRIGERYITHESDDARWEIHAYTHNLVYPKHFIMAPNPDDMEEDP
Experimental: as §1

[5] = target: T5, PIP5K2C (Homo sapiens, UniProt Q8TBX8)
T5 construct: purchased Eurofins/DiscoverX KINOMEscan scanMAX
Experimental: as §1

[6] = target: T6, ULK2 (Homo sapiens, UniProt Q8IYT8)
T6 construct: DNA tag (qPCR barcode); purchased Eurofins/DiscoverX KINOMEscan scanMAX
Experimental: as §1

[7] = target: T7, MARK1 (Homo sapiens, UniProt Q9P0L2)
T7 construct: purchased Eurofins/DiscoverX KINOMEscan scanMAX
Experimental: as §1

[8] = target: T8, IRAK3 (Homo sapiens, UniProt Q9Y616)
T8 construct: purchased Eurofins/DiscoverX KINOMEscan scanMAX
Experimental: as §1

[9] = target: T9, TNNI3K (Homo sapiens, UniProt Q59H18)
T9 construct: purchased Eurofins/DiscoverX KINOMEscan scanMAX
Experimental: as §1

[10] = target: T10, CSK (Homo sapiens, UniProt P41240)
T10 construct: purchased Eurofins/DiscoverX KINOMEscan scanMAX
T10 sequence (P41240 whole entry): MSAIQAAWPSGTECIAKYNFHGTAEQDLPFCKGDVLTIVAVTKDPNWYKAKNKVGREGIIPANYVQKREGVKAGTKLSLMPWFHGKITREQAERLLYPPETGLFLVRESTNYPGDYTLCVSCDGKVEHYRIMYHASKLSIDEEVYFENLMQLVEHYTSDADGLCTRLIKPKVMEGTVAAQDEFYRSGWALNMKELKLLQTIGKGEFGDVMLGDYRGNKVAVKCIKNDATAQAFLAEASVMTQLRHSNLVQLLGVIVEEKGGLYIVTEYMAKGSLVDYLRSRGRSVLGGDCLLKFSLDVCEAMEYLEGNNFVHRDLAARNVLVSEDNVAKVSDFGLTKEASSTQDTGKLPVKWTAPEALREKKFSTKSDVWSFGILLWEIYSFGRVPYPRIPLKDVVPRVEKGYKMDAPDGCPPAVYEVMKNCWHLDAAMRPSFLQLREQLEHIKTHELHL
Experimental: as §1

[11] = target: T11, MLK1 (Homo sapiens, UniProt P80192)
T11 construct: purchased Eurofins/DiscoverX KINOMEscan scanMAX
Experimental: as §1

[12] = target: T12, PKAC-beta (Homo sapiens, UniProt P22694)
T12 construct: purchased Eurofins/DiscoverX KINOMEscan scanMAX
Experimental: as §1

[13] = target: T13, JAK1(JH2domain-pseudokinase) (Homo sapiens, UniProt P23458)
T13 construct: JAK1(JH2domain-pseudokinase); purchased Eurofins/DiscoverX KINOMEscan scanMAX
T13 sequence (P23458 561-860 limits assumed): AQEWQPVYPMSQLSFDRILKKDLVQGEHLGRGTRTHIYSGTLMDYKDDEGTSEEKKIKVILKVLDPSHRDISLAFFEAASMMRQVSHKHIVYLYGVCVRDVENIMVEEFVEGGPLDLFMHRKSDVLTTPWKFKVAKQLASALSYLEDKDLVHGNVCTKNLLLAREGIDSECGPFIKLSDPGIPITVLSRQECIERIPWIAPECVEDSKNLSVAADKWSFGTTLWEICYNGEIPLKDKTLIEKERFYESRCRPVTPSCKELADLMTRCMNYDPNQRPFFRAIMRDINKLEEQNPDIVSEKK
Experimental: as §1

[14] = target: T14, p38-beta (Homo sapiens, UniProt Q15759)
T14 construct: purchased Eurofins/DiscoverX KINOMEscan scanMAX
Experimental: as §1

[15] = target: T15, NEK5 (Homo sapiens, UniProt Q6P3R8)
T15 construct: purchased Eurofins/DiscoverX KINOMEscan scanMAX
Experimental: as §1

[16] = target: T16, PIK3C2G (Homo sapiens, UniProt O75747)
T16 construct: purchased Eurofins/DiscoverX KINOMEscan scanMAX
Experimental: as §1

[17] = target: T17, RIOK2 (Homo sapiens, UniProt Q9BVS4)
T17 construct: purchased Eurofins/DiscoverX KINOMEscan scanMAX
Experimental: as §1

[18] = target: T18, TNIK (Homo sapiens, UniProt Q9UKE5)
T18 construct: purchased Eurofins/DiscoverX KINOMEscan scanMAX
Experimental: as §1

[19] = target: T19, PRKD2 (Homo sapiens, UniProt Q9BZL6)
T19 construct: purchased Eurofins/DiscoverX KINOMEscan scanMAX
Experimental: as §1

[20] = target: T20, MYLK4 (Homo sapiens, UniProt Q86YV6)
T20 construct: purchased Eurofins/DiscoverX KINOMEscan scanMAX
Experimental: as §1

[21] = target: T21, ARK5 (Homo sapiens, UniProt O60285)
T21 construct: purchased Eurofins/DiscoverX KINOMEscan scanMAX
Experimental: as §1

[22] = target: T22, ACVR2A (Homo sapiens, UniProt P27037)
T22 construct: purchased Eurofins/DiscoverX KINOMEscan scanMAX
T22 sequence (P27037 20-513): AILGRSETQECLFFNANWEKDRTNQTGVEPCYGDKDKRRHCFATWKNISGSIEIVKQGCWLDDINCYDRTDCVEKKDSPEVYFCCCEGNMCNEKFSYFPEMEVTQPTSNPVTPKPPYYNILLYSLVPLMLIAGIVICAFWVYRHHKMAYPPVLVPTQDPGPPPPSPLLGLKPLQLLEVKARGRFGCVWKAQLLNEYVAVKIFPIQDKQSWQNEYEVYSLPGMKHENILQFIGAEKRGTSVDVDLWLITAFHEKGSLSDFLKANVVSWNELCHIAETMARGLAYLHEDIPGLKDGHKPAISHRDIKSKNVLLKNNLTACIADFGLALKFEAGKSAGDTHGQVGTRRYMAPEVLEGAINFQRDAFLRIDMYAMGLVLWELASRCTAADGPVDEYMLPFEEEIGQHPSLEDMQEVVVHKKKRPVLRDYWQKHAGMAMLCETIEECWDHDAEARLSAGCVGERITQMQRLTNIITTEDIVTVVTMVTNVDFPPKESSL
Experimental: as §1

[23] = target: T23, CDK8 (Homo sapiens, UniProt P49336)
T23 construct: purchased Eurofins/DiscoverX KINOMEscan scanMAX
Experimental: as §1

[24] = target: T24, MAST1 (Homo sapiens, UniProt Q9Y2H9)
T24 construct: purchased Eurofins/DiscoverX KINOMEscan scanMAX
T24 sequence (Q9Y2H9 whole entry): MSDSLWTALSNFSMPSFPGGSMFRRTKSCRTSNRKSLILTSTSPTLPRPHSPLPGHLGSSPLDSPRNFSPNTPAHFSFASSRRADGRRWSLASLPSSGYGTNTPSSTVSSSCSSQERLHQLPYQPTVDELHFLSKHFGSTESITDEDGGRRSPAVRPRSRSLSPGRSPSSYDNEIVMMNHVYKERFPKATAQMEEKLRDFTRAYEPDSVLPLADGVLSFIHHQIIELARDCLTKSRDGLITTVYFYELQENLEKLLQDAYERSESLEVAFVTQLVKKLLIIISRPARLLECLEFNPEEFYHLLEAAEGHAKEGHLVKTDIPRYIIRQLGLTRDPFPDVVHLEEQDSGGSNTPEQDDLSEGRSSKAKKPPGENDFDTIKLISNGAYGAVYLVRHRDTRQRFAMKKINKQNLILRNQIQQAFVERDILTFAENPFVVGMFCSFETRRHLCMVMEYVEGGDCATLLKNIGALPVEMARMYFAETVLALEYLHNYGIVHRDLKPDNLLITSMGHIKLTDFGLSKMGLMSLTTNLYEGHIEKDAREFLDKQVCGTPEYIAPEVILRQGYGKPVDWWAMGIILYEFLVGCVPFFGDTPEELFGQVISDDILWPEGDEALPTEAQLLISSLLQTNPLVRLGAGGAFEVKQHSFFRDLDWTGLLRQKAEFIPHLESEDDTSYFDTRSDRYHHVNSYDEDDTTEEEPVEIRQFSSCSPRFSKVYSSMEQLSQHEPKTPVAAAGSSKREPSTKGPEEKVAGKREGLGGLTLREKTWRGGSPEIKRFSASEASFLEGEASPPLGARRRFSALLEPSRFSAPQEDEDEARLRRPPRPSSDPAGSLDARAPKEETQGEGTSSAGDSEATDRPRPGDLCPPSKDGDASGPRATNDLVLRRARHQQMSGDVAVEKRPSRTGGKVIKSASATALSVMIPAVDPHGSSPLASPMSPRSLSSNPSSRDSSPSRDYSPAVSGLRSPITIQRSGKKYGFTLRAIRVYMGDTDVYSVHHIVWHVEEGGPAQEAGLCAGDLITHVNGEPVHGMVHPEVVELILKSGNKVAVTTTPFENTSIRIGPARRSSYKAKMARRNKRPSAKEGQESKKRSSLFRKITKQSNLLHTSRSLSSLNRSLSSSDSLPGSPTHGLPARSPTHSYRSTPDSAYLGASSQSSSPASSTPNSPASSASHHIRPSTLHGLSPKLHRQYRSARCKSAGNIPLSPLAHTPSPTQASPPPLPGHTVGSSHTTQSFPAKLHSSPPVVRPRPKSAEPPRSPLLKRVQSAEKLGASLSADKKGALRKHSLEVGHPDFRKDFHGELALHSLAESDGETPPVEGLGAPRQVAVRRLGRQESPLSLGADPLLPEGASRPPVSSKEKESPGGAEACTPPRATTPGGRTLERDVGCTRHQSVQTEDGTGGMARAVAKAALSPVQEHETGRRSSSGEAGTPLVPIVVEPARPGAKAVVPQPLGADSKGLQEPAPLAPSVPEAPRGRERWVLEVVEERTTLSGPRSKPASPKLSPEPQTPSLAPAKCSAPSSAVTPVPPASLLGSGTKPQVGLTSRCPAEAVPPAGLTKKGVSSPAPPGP
Experimental: as §1

[25] = target: T25, MEK1 (Homo sapiens, UniProt Q02750)
T25 construct: purchased Eurofins/DiscoverX KINOMEscan scanMAX
Experimental: as §1

[26] = target: T26, HIPK4 (Homo sapiens, UniProt Q8NE63)
T26 construct: purchased Eurofins/DiscoverX KINOMEscan scanMAX
Experimental: as §1

[27] = target: T27, GRK1 (Homo sapiens, UniProt Q15835)
T27 construct: purchased Eurofins/DiscoverX KINOMEscan scanMAX
Experimental: as §1

[28] = target: T28, CAMK2G (Homo sapiens, UniProt Q13555)
T28 construct: purchased Eurofins/DiscoverX KINOMEscan scanMAX
T28 sequence (Q13555 whole entry): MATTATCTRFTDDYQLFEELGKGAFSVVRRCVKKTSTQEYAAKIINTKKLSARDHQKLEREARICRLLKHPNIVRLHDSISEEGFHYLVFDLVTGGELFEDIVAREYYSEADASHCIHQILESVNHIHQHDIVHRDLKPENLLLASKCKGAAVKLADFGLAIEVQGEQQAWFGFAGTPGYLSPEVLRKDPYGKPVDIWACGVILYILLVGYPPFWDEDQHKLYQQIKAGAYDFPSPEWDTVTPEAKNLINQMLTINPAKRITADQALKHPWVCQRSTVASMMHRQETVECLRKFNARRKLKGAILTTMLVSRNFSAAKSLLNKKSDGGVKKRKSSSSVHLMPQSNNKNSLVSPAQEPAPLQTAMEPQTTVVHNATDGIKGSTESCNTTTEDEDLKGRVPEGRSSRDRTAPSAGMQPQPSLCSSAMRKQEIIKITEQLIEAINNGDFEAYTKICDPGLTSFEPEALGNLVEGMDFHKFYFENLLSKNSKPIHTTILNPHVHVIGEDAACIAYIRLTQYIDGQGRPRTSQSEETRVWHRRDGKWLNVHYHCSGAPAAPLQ
Experimental: as §1

[29] = target: T29, WNK1 (Homo sapiens, UniProt Q9H4A3)
T29 construct: DNA tag (qPCR barcode); purchased Eurofins/DiscoverX KINOMEscan scanMAX
Experimental: as §1

[30] = target: T30, FGFR3(G697C) (Homo sapiens, UniProt P22607, G697C)
T30 construct: purchased Eurofins/DiscoverX KINOMEscan scanMAX
Experimental: as §1

[31] = target: T31, CAMK1B (Homo sapiens, UniProt Q6P2M8)
T31 construct: purchased Eurofins/DiscoverX KINOMEscan scanMAX
Experimental: as §1

[32] = target: T32, IKK-alpha (Homo sapiens, UniProt O15111)
T32 construct: purchased Eurofins/DiscoverX KINOMEscan scanMAX
Experimental: as §1

[33] = target: T33, TYK2(JH2domain-pseudokinase) (Homo sapiens, UniProt P29597)
T33 construct: TYK2(JH2domain-pseudokinase); DNA tag (qPCR barcode); purchased Eurofins/DiscoverX KINOMEscan scanMAX
Experimental: as §1

[34] = target: T34, TAK1 (Homo sapiens, UniProt O43318)
T34 construct: purchased Eurofins/DiscoverX KINOMEscan scanMAX
Experimental: as §1

[35] = target: T35, ALK(L1196M) (Homo sapiens, UniProt Q9UM73, L1196M)
T35 construct: purchased Eurofins/DiscoverX KINOMEscan scanMAX
Experimental: as §1

[36] = target: T36, RSK3(Kin.Dom.1-N-terminal) (Homo sapiens, UniProt Q15349)
T36 construct: RSK3(Kin.Dom.1-N-terminal); purchased Eurofins/DiscoverX KINOMEscan scanMAX
Experimental: as §1

[37] = target: T37, ABL1(H396P)-nonphosphorylated (Homo sapiens, UniProt P00519, H396P)
T37 construct: purchased Eurofins/DiscoverX KINOMEscan scanMAX
Experimental: as §1

[38] = target: T38, ABL1(F317L)-nonphosphorylated (Homo sapiens, UniProt P00519, F317L)
T38 construct: purchased Eurofins/DiscoverX KINOMEscan scanMAX
Experimental: as §1

[39] = target: T39, JAK2(JH1domain-catalytic) (Homo sapiens, UniProt O60674)
T39 construct: JAK2(JH1domain-catalytic); purchased Eurofins/DiscoverX KINOMEscan scanMAX
Experimental: as §1

[40] = target: T40, PFPK5(P.falciparum) (Plasmodium falciparum, UniProt P61075)
T40 construct: purchased Eurofins/DiscoverX KINOMEscan scanMAX
T40 sequence (P61075 whole entry): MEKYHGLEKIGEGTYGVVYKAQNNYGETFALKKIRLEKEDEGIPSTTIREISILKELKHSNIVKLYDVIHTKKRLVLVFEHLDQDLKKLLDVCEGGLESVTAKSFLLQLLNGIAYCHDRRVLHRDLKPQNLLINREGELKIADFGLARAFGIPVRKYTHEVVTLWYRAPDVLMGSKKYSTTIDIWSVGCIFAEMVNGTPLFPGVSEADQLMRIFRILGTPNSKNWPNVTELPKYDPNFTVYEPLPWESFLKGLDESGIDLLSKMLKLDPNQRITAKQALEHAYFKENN
Experimental: as §1

T1 sequence (Q9Y243 whole entry): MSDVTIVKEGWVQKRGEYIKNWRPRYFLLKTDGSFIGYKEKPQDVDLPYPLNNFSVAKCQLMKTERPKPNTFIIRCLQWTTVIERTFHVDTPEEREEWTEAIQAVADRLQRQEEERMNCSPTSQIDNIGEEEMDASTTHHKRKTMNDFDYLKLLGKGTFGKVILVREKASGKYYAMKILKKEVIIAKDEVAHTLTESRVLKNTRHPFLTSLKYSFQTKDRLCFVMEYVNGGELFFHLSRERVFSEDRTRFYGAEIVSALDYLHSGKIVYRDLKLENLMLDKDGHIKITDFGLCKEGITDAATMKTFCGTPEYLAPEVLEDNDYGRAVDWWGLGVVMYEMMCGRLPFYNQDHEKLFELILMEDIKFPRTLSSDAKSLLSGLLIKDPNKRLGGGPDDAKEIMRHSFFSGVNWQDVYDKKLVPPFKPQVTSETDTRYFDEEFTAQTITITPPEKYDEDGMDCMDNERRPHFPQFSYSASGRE

CN1CCN(C2CCC(n3cc(-c4ccc(Oc5ccccc5)cc4)c4c(N)ncnc43)CC2)CC1 (stereo not shown) [A-419259]
% Control [1]: 100%
% Control [2]: 99%
% Control [3]: 100%
% Control [4]: 17%
% Control [5]: 95%
% Control [6]: 47%
% Control [7]: 82%
% Control [8]: 89%
% Control [9]: 91%
% Control [10]: 2.1%
% Control [11]: 88%
% Control [12]: 100%
% Control [13]: 100%
% Control [14]: 100%
% Control [15]: 100%
% Control [16]: 100%
% Control [17]: 100%
% Control [18]: 100%
% Control [19]: 63%
% Control [20]: 96%
% Control [21]: 90%
% Control [22]: 100%
% Control [23]: 28%
% Control [24]: 64%
% Control [25]: 0.1%
% Control [26]: 63%
% Control [27]: 100%
% Control [28]: 100%
% Control [29]: 73%
% Control [30]: 27%
% Control [31]: 100%
% Control [32]: 90%
% Control [33]: 95%
% Control [34]: 77%
% Control [35]: 68%
% Control [36]: 22%
% Control [37]: 0.2%
% Control [38]: 4.7%
% Control [39]: 100%
% Control [40]: 78%
